Measurements taken from patent publication US20210196779A1, “Compositions and Methods for Treating Steroid Hormone-Related Diseases or Disorders” (YALE UNIVERSITY, priority 2018, published 2021).

Assays:
[1] = system: different prostate cell lines; test: Growth of different prostate cell lines, all conditions; type: cell-based; settings: under all conditions, up to 500 ng/ml
Description: 20,000 cells in 1 ml of medium (phenol red free RPMI1640, 5% charcoal-dialysis FBS, 50 μg/ml Kanamyacin) were seeded per well of a 24-well plate and incubated in a 37° C. incubator with 5% CO2 overnight. […] For prostate cancer cells, DHT (25 nM) was used to stimulate androgen receptor activity. For glucocorticoid receptor overexpressed LNCaP cells, dexamethasone (50 nM) was used to stimulate glucocorticoid receptor activity. For all breast cancer cells, E2 (10 nM) was used to stimulate ER activity. Control medium without any steroid hormone was used as a control setting. After 4 days of incubation, cells were fixed and stained for 2 h with 0.5% methylene blue in 50% ethanol, followed by washing with tap water to remove unbound dye. Plates were air dried and then cells were dissolved in 1% sarkosyl (sodium lauroyl sarcosinate) by shaking at room temperature for 3 h. Cell growth was quantified based on the amount of methylene blue adsorbed by the cells as measured by a spectrophotometer (Molecular Devices) at 595 nm. All experiments were performed in triplicate wells and were repeated at least three times.

T4D cells = test: Cell growth assay, T4D breast cancer cells; type: cell-based; settings: under E2 stimulation, 4 days
Description: (§1) MCF7, T47D, MDA-MB-453, MDA-MB-231 breast cancer cells were grown in corning T75 cell culture flask in RPMI1640 medium supplemented with 5% FBS, 50 μg/ml Kanamycin in a 37° C., 5% CO2 incubator.
(§2) 20,000 cells in 1 ml of medium (phenol red free RPMI1640, 5% charcoal-dialysis FBS, 50 μg/ml Kanamyacin) were seeded per well of a 24-well plate and incubated in a 37° C. incubator with 5% CO2 overnight. Different concentrations of herbal extract were added to each well in order to have final concentrations from 50 μg/ml to 500 μg/ml. For prostate cancer cells, DHT (25 nM) was used to stimulate androgen receptor activity. For glucocorticoid receptor overexpressed LNCaP cells, dexamethasone (50 nM) was used to stimulate glucocorticoid receptor activity. For all breast cancer cells, E2 (10 nM) was used to stimulate ER activity. Control medium without any steroid hormone was used as a control setting. After 4 days of incubation, cells were fixed and stained for 2 h with 0.5% methylene blue in 50% ethanol, followed by washing with tap water to remove unbound dye. Plates were air dried and then cells were dissolved in 1% sarkosyl (sodium lauroyl sarcosinate) by shaking at room temperature for 3 h. Cell growth was quantified based on the amount of methylene blue adsorbed by the cells as measured by a spectrophotometer (Molecular Devices) at 595 nm. […]

H3K9 acetylation = test: Western blot, MCF7 and 22RV1 cells, H3K9 acetylation; type: cell-based; settings: MCF7 and 22RV1 cells (FIGS. 11A-11B), 24 h
Description: Western blot analysis was used to determine the protein expression using protein specific antibodies. β-actin or histone 3 was used to normalize protein loading.
(§3) Total cell lysis was conducted using 2×SDS sample buffer (62.5 mM Tris-HCl, 2% SDS, 10% glycerol, 50 mM DTT, and 0.05% bromophenol blue). The samples were sonicated for 10 s to shear DNA. Cell nuclei were isolated using Tris buffer saline with 0.4% NP40. Cell extracts were then electrophoresed through 10% SDS-polyacrylamide gels and transferred to 0.2 μm nitrocellulose membranes (Bio-Rad Laboratories, Hercules, Calif.) with a Miniprotein II transferring apparatus (Bio-Rad). The membranes were blocked and probed in TBS-T buffer (1×TBS buffer, 0.2% Tween 20) containing 5% non-fat milk. […] Enhanced chemiluminescence reagents (Perkin-Elmer Life Science Products, Boston, Mass.) were used to visualize the immunoreactive bands and the densities of protein bands were scanned analyzed using ImageJ software from the NIH.

[2] = system: Poly[ADP-ribose] polymerase-1 (PARP-1); test: Western blot, MCF7 cells, PARP-1; type: cell-based; settings: 24 h
Description: (§4) Western blot analysis was used to determine the protein expression using protein specific antibodies.
as §3, with “milk. Monoclonal rabbit anti-AR (1:5000), was used to detect androgen receptor (Abcam #133273), Glucocorticoid Receptor (D8H2) XP® Rabbit mAb #3660, ERa Antibody (F-10): sc-8002, BRD4 (E2A7X) Rabbit mAb #13440, Brd2 (D89B4) Rabbit mAb #5848, PARP (46D11) Rabbit mAb #9532, Acetyl-Histone H3 (Lys27) (D5E4) XP® Rabbit mAb #8173 and a monoclonal actin antibody diluted 1:2500 (Sigma, St. Louis, Mo.) was used to detect β-actin as the internal control to confirm equal protein loading.” for “milk.”

[3] = system: histone 2AX serine 139 phosphorylation; test: Western blot, MCF7 cells, H2AX-ser139; type: cell-based; settings: presence or absence of E2, 24 h
Description: as §4
as §3, with “milk. Monoclonal rabbit anti-AR (1:5000), was used to detect androgen receptor (Abcam #133273), Glucocorticoid Receptor (D8H2) XP® Rabbit mAb #3660, ERa Antibody (F-10): sc-8002, BRD4 (E2A7X) Rabbit mAb #13440, Brd2 (D89B4) Rabbit mAb #5848, PARP (46D11) Rabbit mAb #9532, Acetyl-Histone H3 (Lys27) (D5E4) XP® Rabbit mAb #8173 and a monoclonal actin antibody diluted 1:2500 (Sigma, St. Louis, Mo.) was used to detect β-actin as the internal control to confirm equal protein loading.” for “milk.”

[4] = Body weight of nude mice during the treatment; type: in vivo; settings: equivalent dose to Y1830 (2.2 mg/kg, PO, B.I.D.), 11 days
Description: (§5) 22RV1 prostate cancer cells 5×10^6 cells in 100 μl Matrigel were injected subcutaneously into 10 week old male NCR nude mice. When 22RV1 tumor reached 5 mm×5 mm, mice were orally fed with Y1830 (water extract, 500 mg/kg, PO, B.I.D, N5) and RGA (or the fraction comprising RGA) (equivalent dose to Y1830: 2.2 mg/kg, PO, B.I.D.) for 11 days. Tumor volume was estimated by using the formula length×width^2/2.
(§6) When tumors reached 5 mm×5 mm, Y1830 water extract (500 mg/kg, BID, PO) and RGA (or the fraction comprising RGA) at equivalent dose to Y1830 were used to treat animals for 11 days. […] Therefore, it is further concluded that compounds other than molecules in RGA containing fraction of Y1830 total extract may also have anti-tumor activity or prevent tumor to develop drug resistant.

22RV1 tumor = test: Inhibition of 22RV1 prostate cancer growth in nude mice; type: in vivo; settings: equivalent dose to Y1830 (2.2 mg/kg, PO, B.I.D.), 11 days
Description: as §5, §6

MDAMB-231 cells = test: Cell growth assay, MDAMB-231 breast cancer cells; type: cell-based; settings: 4 days
Description: as §1, §2

GR (stimulated with DEX) = target: T1, GR (stimulated with DEX) (Homo sapiens, UniProt P04150); test: GR driven luciferase activity (DEX) in LNCaP-GR cells; type: cell-based; settings: LNCaP-GR luciferase reporter cells
T1 construct: expressed in transfected cells; host or cells: LNCaP (LNCaP-GR)
T1 sequence (P04150 whole entry): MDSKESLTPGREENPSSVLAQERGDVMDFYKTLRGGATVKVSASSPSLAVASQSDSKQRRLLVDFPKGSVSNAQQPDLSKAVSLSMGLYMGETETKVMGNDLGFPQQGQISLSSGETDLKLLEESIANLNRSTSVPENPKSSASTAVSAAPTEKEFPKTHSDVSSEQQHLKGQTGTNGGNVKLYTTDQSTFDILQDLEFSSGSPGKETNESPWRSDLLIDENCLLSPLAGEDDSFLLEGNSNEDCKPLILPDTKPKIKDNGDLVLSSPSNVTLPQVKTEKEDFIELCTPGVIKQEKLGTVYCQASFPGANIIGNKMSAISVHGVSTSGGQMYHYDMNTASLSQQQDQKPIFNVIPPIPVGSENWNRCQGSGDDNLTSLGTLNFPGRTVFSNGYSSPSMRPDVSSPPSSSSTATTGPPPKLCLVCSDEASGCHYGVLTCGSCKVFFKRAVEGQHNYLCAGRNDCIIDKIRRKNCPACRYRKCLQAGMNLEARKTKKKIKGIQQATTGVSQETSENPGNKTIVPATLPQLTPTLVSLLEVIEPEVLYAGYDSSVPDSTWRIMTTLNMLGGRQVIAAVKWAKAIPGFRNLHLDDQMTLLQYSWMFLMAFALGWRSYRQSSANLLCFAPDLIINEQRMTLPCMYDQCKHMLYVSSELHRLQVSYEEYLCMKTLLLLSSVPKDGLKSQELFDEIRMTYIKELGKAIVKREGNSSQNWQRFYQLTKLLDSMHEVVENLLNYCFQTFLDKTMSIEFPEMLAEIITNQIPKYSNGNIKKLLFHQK
Description: Both LNCaP and GR overexpressing LNCaP cells were carrying luciferase reporters with AR response elements.
Reporter cells were treated with herbal extracts at 30, 100, 300, and 1000 μg/ml for 24 h in a 37° C.-CO2 incubator. DHT (25 nM) was used to stimulate androgen receptor activity. Dexamethasone (50 nM) was used to stimulate glucocorticoid receptor activity Cells were lysed using luciferase lysis buffer after which luciferase buffer with luciferin was added to generate luminescence. Luminescence was recorded using a luminescence microplate reader.

tumor protein p53 = test: Western blot, MCF7 cells, p53; type: cell-based; settings: wt MCF7 cells, 24 h
Description: as §4
as §3, with “milk. Monoclonal rabbit anti-AR (1:5000), was used to detect androgen receptor (Abcam #133273), Glucocorticoid Receptor (D8H2) XP® Rabbit mAb #3660, ERa Antibody (F-10): sc-8002, BRD4 (E2A7X) Rabbit mAb #13440, Brd2 (D89B4) Rabbit mAb #5848, PARP (46D11) Rabbit mAb #9532, Acetyl-Histone H3 (Lys27) (D5E4) XP® Rabbit mAb #8173 and a monoclonal actin antibody diluted 1:2500 (Sigma, St. Louis, Mo.) was used to detect β-actin as the internal control to confirm equal protein loading.” for “milk.”

| SMILES | inhibitory effect on cell growth (in words) [1] | inhibitory effect on T4D cell growth (T4D cells) | H3K9 acetylation (H3K9 acetylation) | PARP-1 protein expression [2] | histone 2AX serine 139 phosphorylation [3] | animal body weight loss [4] | inhibition on 22RV1 tumor growth (22RV1 tumor) | inhibition of growth of triple negative MDAMB-231 cells (MDAMB-231 cells) | inhibition of DEX induced transcriptional response (GR (stimulated with DEX)) | p53 protein expression (tumor protein p53) |
| --- | --- | --- | --- | --- | --- | --- | --- | --- | --- | --- |
| Cc1c(OC2OC(CO)C(O)C(O)C2OC2OC(C)C(O)C(O)C2O)cc2c(c1O)C(=O)c1ccc(O)cc1C2=O [RG, 1,3,6-Trihydroxy-2-methyl-9,10-anthracenedione 3-O-[α-L-Rhamnopyranosyl-(1→2)-β-D-glucopyranoside]] | did not any show inhibitory effect | – | – | – | – | – | – | – | – | – |
| CC(=O)OCC1OC(Oc2cc3c(c(O)c2C)C(=O)c2ccc(O)cc2C3=O)C(OC2OC(C)C(O)C(O)C2O)C(O)C1O [RGA, 1,3,6-Trihydroxy-2-methyl-9,10-anthracenedione 3-O-[α-L-Rhamnopyranosyl-(1→2)-6-O-acetyl-β-D-glucopyranoside]] | – | strong inhibitory effect | did not have a large impact | downregulate | triggered | did not cause animal body weight loss | significant inhibition on 22RV1 tumor growth from day 2 to day 6 | inhibited the growth | effectively inhibit | downregulated |
